Counter-ions that a name gives are not always drawn.
What was measured:
[1] = molecular target: T1, EGFR intracellular domain (Homo sapiens, UniProt P00533); experiment: Assay of EGFR kinase inhibitory activity; format: biochemical; conditions: compound 1.0 μM, poly-Glu:Tyr (4:1) substrate, [γ-32P]ATP, read-out: Inhibitory rate (%) at 1.0 μM
T1 construct: made in house; host or cells: SF-21 insect cells infected with recombinant baculovirus BAC-EGFR
Description: Human EGFR gene was cloned by RT-PCR using total RNA prepared from A431 cell as a template. The primer used for RT-PCR was prepared from base sequence (Genbank Accession No. X00588) information of EGFR gene, adding DYKDDDD base sequence encoding the peptide and a restriction enzyme recognition sequence to a base sequence (2191-3819 of Genbank Accession No. X00588 as a base, and corresponding to 669-1210 amino acid of Genbank Accession No. NP_005219 as a protein) encoding the EGFR intracellular domain, so that a DYKDDDD peptide tag would be attached to the N-terminus of the protein. The base sequence of the primer is shown in below.
The RT reaction was performed using Superscript First-Strand Synthesis System for RT-PCR (Invitrogen), and PCR reaction was performed using KOD-plus kit (TOYOBO). The obtained PCR product was electrophoresed on agarose gel (1%), and the DNA fragment amplified by PCR was recovered from the gel, and then digested with restriction enzymes Sal I and Sph I. The DNA treated with the restriction enzymes was electrophoresed on agarose gel (1%), and the obtained DNA fragment was recovered and ligated to plasmid pFASTBAC1 (Invitrogen) digested with restriction enzymes Sal I and Sph I to give expression plasmid pFB-EGFR. The base sequence of the inserted fragment was confirmed and found to be identical with the base sequence of the EGFR intracellular domain (2191-3819 of Genbank Accession X00588). Furthermore, virus stock BAG-EGFR of recombinant Baculovirus was prepared using BAC-TO-BAC Baculovirus Expression System (Invitrogen).
SF-21 cells were sown at 1×10^6 cells/mL to 1 L of Sf-900II SFM medium (Invitrogen) containing 10% fetal calf serum (trace), 50 mg/L Gentamicin (Invitrogen) and 0.1% Pluronic F-68 (Invitrogen), and cultured with shaking in a 2 L Erlenmeyer flask at 27° C., 100 rpm. After culture for 24 hr, recombinant Baculovirus BAC-EGFR (13.4 mL) was added thereto, and the cells were further cultured for 3 days. The culture medium was centrifuged at 2,000 rpm for 5 min to give virus infected cells. The infected cells were washed with phosphate buffered saline (Invitrogen), centrifuged under the same conditions, and preserved at −80° C. The cryopreserved cells were thawed in ice and suspended in 30 mL of buffer A containing Complete Protease Inhibitor (Boehringer) (50 mM tris buffer (pH 7.4) containing 20% Glycerol, 0.15 M NaCl). The cells were disrupted 3 times at 20,000 rpm for 30 sec using a polytron homogenizer (Kinematica). The disrupt was clarified by centrifugation at 40,000 rpm for 30 min and filtered through a 0.45 μm filter. The filtrate was passed through a column packed with 4 mL of Anti-FLAG M2 Affinity Gel (Sigma Aldrich Co.) at a flow rate of about 0.5 mL/min. The column was washed with buffer A, and eluted with buffer A containing 100 μg/mL of FLAG peptide. The eluate was concentrated with Vivaspin 20 having a molecular weight cut off of 30 K (Vivascience). The concentrate was purified by gel filtration using Hi-Load 16/60 Superdex 200 pg (GE Healthcare Bioscience) equilibrated with buffer A. The fractions containing EGFR intracellular domain were collected and cryopreserved at −80° C.
EGFR kinase reaction was carried out using a 96-well plate. As a buffer for Kinase reaction, a buffer of a composition of 50 mM Tris-HCl (pH 7.5), 5 mM MnCl2, 2 mM dithiothreitol and 0.01% Tween-20 was used. […]

[2] = system: human breast cancer cell BT-474; experiment: Inhibitory action on breast cancer cell BT-474 proliferation in vitro; format: cell-based; conditions: 120 h, BT-474 cells, cultured 5 days with compound, SRB staining of cell protein
Description: A suspension of human breast cancer cell BT-474 (100 μl (6,000 cells)) were plated to 96-well microplate and cultured in an incubator (37° C., 5% carbon dioxide). On the following day, 100 μl of a solution of each test compound previously diluted serially in 2-fold, was added to give indicated dose, and the cells were cultured for 5 days. The culture medium containing the test compound was removed, and the cells were washed, and fixed with 50% trichloroacetic acid, and 0.4% w/v) SRB solution (dissolved in 1% acetic acid) was added to stain the cell protein (Skehan et al., Journal of the National Cancer Institute, Vol. 82, pp. 1107-1112, 1990). After washing with a 1% acetic acid solution, 100 μl of Tris solution (10 mM) was added to extract the pigment and the absorbance was measured at a wavelength of 550 nm to quantify the amount of cells as protein content. Taking as 100% the protein content for the control group, which received no test compound solution, the ratio of the residual protein content for each treatment group was determined, and the compound concentration required to achieve 50% suppression of the residual cell content relative to the control (IC50 value) was calculated.

[3] = molecular target: T2, HER2 intracellular domain (Homo sapiens, UniProt P04626); experiment: Measurement of HER2 kinase inhibitory activity; format: biochemical; conditions: compound 1.0 μM, poly-Glu:Tyr (4:1) substrate, [γ-32P]ATP, read-out: Inhibitory rate (%) at 1.0 μM
T2 construct: made in house; host or cells: SF-21 insect cells infected with recombinant baculovirus BAC-HER2
Description: Human HER2 gene was cloned by RT-PCR using total RNA prepared from MCF7 cells as a template. The primer used for RT-PCR was prepared from base sequence (Genbank Accession No. M11730) information of HER2 gene, adding base sequence encoding DYKDDDD peptide and a restriction enzyme recognition sequence to a nucleotide sequence (2176-3918 of Genbank Accession No. M11730 as a base, and corresponding to 676-1255 amino acid of Genbank Accession No. NP_004439 as a protein) encoding the HER2 intracellular domain region, so that a DYKDDDD peptide tag would be attached to the N-terminus of the protein. The base sequence of the primer is shown in below.
The RT reaction was performed using Superscript First-Strand Synthesis System for RT-PCR (Invitrogen) and the PCR reaction was performed using KOD-plus kit (TOYOBO). The obtained PCR product was electrophoresed on agarose gel (1%), and the DNA fragment amplified by PCR was recovered from the gel, and then digested with restriction enzymes Sal I and Sph I. The DNA treated with the restriction enzymes was electrophoresed on agarose gel (1%), and the obtained DNA fragment was recovered and ligated to plasmid pFASTBAC1 (Invitrogen) digested with restriction enzymes Sal I and Sph I to give expression plasmid pFB-HER2. The base sequence of the inserted fragment was confirmed and found to be identical with the base sequence of HER2 intracellular domain (2176-3918 of Genbank Accession M11730). Furthermore, using BAC-TO-BAC Baculovirus Expression System (Invitrogen), recombinant baculovirus BAC-HER2 was prepared.
SF-21 cells were sown at 1×10^6 cells/mL to 1 L of Sf-900II SFM medium (Invitrogen) containing 10% fetal calf serum (trace), 50 mg/L gentamicin (Invitrogen) and 0.1% Pluronic F-68 (Invitrogen), and cultured with shaking in 2 L volume Erlenmeyer flask at 27° C., 100 rpm. After culturing for 24 hr, recombinant baculovirus BAC-HER2 (13.4 mL) was added thereto, and the cells were further cultured for 3 days. The culture medium was centrifuged at 2,000 rpm for 5 min to give virus-infected cells. The infected cells were washed with phosphate buffered saline (Invitrogen), centrifuged under the same conditions, and preserved at −80° C. The cryopreserved cells were thawed in ice and suspended in buffer A (50 mM Tris buffer (30 mL, pH 7.4) containing 20% glycerol, 0.15 M NaCl) supplemented with Complete Protease Inhibitor (Boehringer). The cells were ruptured 3 times with a Polytron homogenizer (Kinematica) at 20,000 rpm for 30 sec. The disrupt was clarified by centrifugation at 40,000 rpm for 30 min and filtered with a 0.45 μm filter. The filtrate was passed through a column packed with Anti-FLAG M2 Affinity Gel (4 mL, Sigma Aldrich CO.) at a flow rate of about 0.5 mL/min. The column was washed with buffer A, and eluted with buffer A containing 100 μg/mL of FLAG peptide. The eluate was concentrated with Vivaspin 20 (Vivascience) having a molecular weight cut off of 30K. The concentrate was purified by gel filtration using Hi-Load 16/60 Superdex 200pg (GE Healthcare Bioscience) equilibrated with buffer A. The fractions containing HER2 intracellular domain were collected and cryopreserved at −80° C.
HER2 kinase reaction was carried out using 96-well plate. As a buffer for Kinase reaction, a buffer of a composition of 50 mM Tris-HCl (pH 7.5), 5 mM MnCl2, 2 mM dithiothreitol and 0.01% Tween-20 was used. The compound of the present invention was dissolved in dimethyl sulfoxide (DMSO), and diluted with a buffer for kinase reaction so that the DMSO concentration would become 0.1% during kinase reaction. The compound solution (10 μL) was mixed with a buffer for kinase reaction (20 μL) containing the HER2 intracellular domain (0.625 μg/mL) obtained in Experimental Example 1B and a polypeptide substrate poly-Glu:Tyr (4:1) (12.5 μg/mL, Sigma Ltd.) and the mixture was stood for 5 min at room temperature. […]

T1 sequence (P00533 669-1210): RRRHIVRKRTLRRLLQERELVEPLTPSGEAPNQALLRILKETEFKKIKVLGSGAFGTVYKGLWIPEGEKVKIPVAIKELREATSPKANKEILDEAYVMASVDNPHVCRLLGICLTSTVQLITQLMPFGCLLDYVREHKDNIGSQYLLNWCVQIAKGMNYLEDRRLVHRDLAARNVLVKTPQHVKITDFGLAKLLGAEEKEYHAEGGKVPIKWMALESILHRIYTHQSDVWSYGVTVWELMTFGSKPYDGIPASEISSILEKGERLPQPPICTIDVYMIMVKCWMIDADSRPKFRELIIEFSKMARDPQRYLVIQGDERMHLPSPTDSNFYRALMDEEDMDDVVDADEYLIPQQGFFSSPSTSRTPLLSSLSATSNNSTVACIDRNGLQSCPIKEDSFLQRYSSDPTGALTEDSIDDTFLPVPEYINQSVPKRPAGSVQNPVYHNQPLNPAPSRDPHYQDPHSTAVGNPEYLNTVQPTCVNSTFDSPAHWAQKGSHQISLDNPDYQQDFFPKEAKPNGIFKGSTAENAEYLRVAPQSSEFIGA
T2 sequence (P04626 676-1255): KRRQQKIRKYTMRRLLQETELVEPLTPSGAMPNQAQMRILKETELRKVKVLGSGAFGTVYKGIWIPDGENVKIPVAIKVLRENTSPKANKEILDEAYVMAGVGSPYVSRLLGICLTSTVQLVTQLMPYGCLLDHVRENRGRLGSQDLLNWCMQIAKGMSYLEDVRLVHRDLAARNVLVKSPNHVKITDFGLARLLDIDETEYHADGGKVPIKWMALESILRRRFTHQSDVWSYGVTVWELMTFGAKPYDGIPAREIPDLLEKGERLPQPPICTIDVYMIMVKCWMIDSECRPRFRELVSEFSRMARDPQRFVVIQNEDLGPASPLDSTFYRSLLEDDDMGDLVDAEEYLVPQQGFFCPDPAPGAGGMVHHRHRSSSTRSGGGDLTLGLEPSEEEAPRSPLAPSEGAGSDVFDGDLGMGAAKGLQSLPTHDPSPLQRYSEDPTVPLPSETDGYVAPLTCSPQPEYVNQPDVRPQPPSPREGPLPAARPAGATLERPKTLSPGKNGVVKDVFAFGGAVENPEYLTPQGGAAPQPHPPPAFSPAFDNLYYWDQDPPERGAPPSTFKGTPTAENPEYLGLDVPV

Structure (SMILES)	inhibition at 1 µM [1] [%]	IC50 [2] [nM]	inhibition at 1 µM [3] [%]
O=C(NCCOCCO)C1=Cc2c(ncnc2Nc2ccc(Oc3cccc(C(F)(F)F)c3)c(Cl)c2)NCC1 [Example 119, 4-({3-chloro-4-[3-(trifluoromethyl)phenoxy]phenyl}amino)-N-[2-(2-hydroxyethoxy)ethyl]-8,9-dihydro-7H-pyrimido[4,5-b]azepine-6-carboxamide]	96	< 100	
COCCOCCNC(=O)C1=Cc2c(ncnc2Nc2ccc(Oc3cccc(C(F)(F)F)c3)c(Cl)c2)NCC1 [Example 122, 4-({3-chloro-4-[3-(trifluoromethyl)phenoxy]phenyl}amino)-N-[2-(2-methoxyethoxy)ethyl]-8,9-dihydro-7H-pyrimido[4,5-b]azepine-6-carboxamide]		< 100	96
O=C(NCCOCCO)C1=Cc2c(ncnc2Nc2ccc(Oc3cccc(Cl)c3)c(Cl)c2)NCC1 [Example 143, 4-{[3-chloro-4-(3-chlorophenoxy)phenyl]amino}-N-[2-(2-hydroxyethoxy)ethyl]-8,9-dihydro-7H-pyrimido[4,5-b]azepine-6-carboxamide hydrochloride]	97	< 100	
O=C(NCCS(=O)(=O)CCO)C1=Cc2c(ncnc2Nc2ccc(Oc3cccc(C(F)(F)F)c3)c(Cl)c2)NCC1 [Example 147, 4-({3-chloro-4-[3-(trifluoromethyl)phenoxy]phenyl}amino)-N-{2-[(2-hydroxyethyl)sulfonyl]ethyl}-8,9-dihydro-7H-pyrimido[4,5-b]azepine-6-carboxamide]	95		

Reference: patent US20100234351A1, “FUSED NITROGEN-COMPRISING HETEROCYCLIC COMPOUND” (TAKEDA PHARMACEUTICAL COMPANY LIMITED, priority 2006, published 2010)
